Reference: US20140037604A1, “NUTRITIONAL COMPOSITIONS COMPRISING ALPHA-HYDROXYISOCAPROIC ACID” (NESTEC S.A., priority 2011, published 2014)
Entries after “also recorded” stand apart in the source; their conditions may differ. Where two headings read alike, the source gives them in different places.

How the values were obtained:
[1] = tested on: protein synthesis in gastrocnemius, liver and heart; experiment: In vivo rate of tissue protein synthesis, flooding-dose technique with [3H]-L-phenylalanine; parameters: species or system male Wistar rats; conditions: for In-vivo-determined tissue protein synthesis: Liver / In-vivo-determined tissue protein synthesis: Heart: freely fed rats; for In-vivo-determined tissue protein synthesis: Heart: no unit in table (text b163: nmol Phe/h/mg protein); for Immobilization (casting)-induced decrease in muscle protein synthesis: gastrocnemius, 7 days of immobilization
Description: (§1) Water was provided ad libitum.
The in vivo rate of protein synthesis in gastrocnemius, liver and heart (ventricle only) was determined using the flooding-dose technique, exactly as described (Vary T C and Lang C H, Assessing effects of alcohol consumption on protein synthesis in striated muscles. Methods Mol Biol 447: 343-355, 2008). A P-50 catheter was placed in the left carotid artery for the withdrawal of blood. Rats were injected intravenously (IV) with [^3H]-L-phenylalanine (Phe; 150 mM, 30 μCi/ml; 1 ml/100 g body weight) and blood was collected 15 min later for determining the plasma Phe concentration and radioactivity. Thereafter, tissues were rapidly excised and a portion freeze-clamped and then stored at −70° C. The rate of protein synthesis was calculated by dividing the amount of radioactivity incorporated into protein by the plasma Phe specific radioactivity. The specific radioactivity of the plasma Phe was measured by high performance liquid chromatography (HPLC) analysis of supernatant from trichloroacetic acid (TCA) extracts of plasma. In addition, samples of fresh muscle were homogenized for Western blot and analysis of selected proteins and another piece of tissue used for qRT-PCR, as described below.

[2] = Blood chemistry profile, metabolic substrates and hormone (serum); assay type: in vivo, male Wistar rats; conditions: for Insulin: ELISA; for Insulin / HOMA-IR (homeostatic model assessment of insulin resistance) / Triglycerides / ALT / AST / Albumin / BUN / Bilirubin, total / Calcium / Chloride / Cholesterol / Creatinine / Glucose / LDH / Phosphorous / Potassium / Protein, total / Sodium: means ± SEM; for HOMA-IR (homeostatic model assessment of insulin resistance): calculated from insulin and glucose; for ALT / AST / Albumin / BUN / Bilirubin, total / Calcium / Chloride / Cholesterol / Creatinine / Glucose / LDH / Phosphorous / Potassium / Protein, total / Sodium: serum; for Sodium: all studies combined
Description: (§2) Blood was collected from the arterial catheter while rats were anesthetized and prior to injection of [^3H]-Phe. Blood was dispensed to determine standard hematological and biochemical endpoints. For hematology analyses, 250-500 μl of blood was dispensed to tubes containing EDTA (BD No. 365974; Fisher Scientific). Hematology analyses (Heska CBC-Diff Hematology Analyzer, Loveland, Colo.) included: red and white blood cell counts, hematocrit, hemoglobin, platelets, and differential leukocyte counts. Reticulocytes were counted manually using methylene blue stain. In addition, 900 μl blood was dispensed to a tube containing 100 μl of 0.109 M sodium citrate (BD Medical No. 363083; Fisher Scientific) for measurement of prothrombin time (BBL Fibrometer System, Cockeysville, Md.). The remaining blood was dispensed to a silicone-coated collection tube (BD No. 366381; Fisher Scientific) and allowed to clot. Clotted blood samples were centrifuged in a Beckman Coulter Allegra X-12R centrifuge at 3500 rpm for 5 min at 4° C., and the serum was collected and stored. Biochemical analyses on serum was performed on a Cobas Mira Plus Chemistry Analyzer (Diamond Diagnostics, Holliston, Mass.) and included: total bilirubin, glucose, aspartate aminotransferase, alanine aminotransferase, lactate dehydrogenase, albumin, calcium, creatinine, urea, phosphate, total cholesterol, chloride, and total protein. Serum sodium and potassium were analyzed by flame photometer (IL940; Instrumentation Laboratory, Lexington, Mass.). Triglycerides and free fatty acids (FFAs) were determined colorimetrically (Abcam, Cambridge, Mass.; Wako Diagnostics, Richmond, Va., respectively). Insulin was determined by ELISA (Alpco diagnostics, Salem, N.H.). The homeostatic model assessment of insulin resistance (HOMA-IR) was calculated to provide an estimate of whole-body insulin resistance (Turner R C, Holman R R, Matthews D, Hockaday T D and Peto J. Insulin deficiency and insulin resistance interaction in diabetes: estimation of their relative contribution by feedback analysis from basal plasma insulin and glucose concentrations. Metabolism 28: 1086-1096,1979).

[3] = Hematological profile; assay type: in vivo, male Wistar rats; conditions: means ± SEM; for Hematocrit / Hemoglobin / Lymphocytes / MCH / MCV / Neutrophils / Platelets / RBC / WBC: blood; for Protime (prothrombin time): citrated blood
Description: as §2

[4] = tested on: gastrocnemius of hindlimb-immobilized rats; experiment: Muscle atrophy and recovery after unilateral hindlimb immobilization (gastrocnemius weight); assay type: in vivo, male Wistar rats; conditions: for Muscle regrowth (gastrocnemius mass) 7 days after removal of the cast: 7 days immobilization + 7 days recovery, compared to control diet; for Decrease in gastrocnemius mass by immobilization: 7 days of cast immobilization, versus contralateral uncasted limb; for Mass of previously immobilized gastrocnemius compared to contralateral uncasted muscle: recovery day 14
Text: as §1

[5] = rat, in vivo
Description: (§3) Animal protocols. The experiments described herein were broadly organized into two experimental series. Both studies used male Wistar rats (Charles River Breeding Laboratories, Cambridge, Mass.) which acclimated for 1 week in a controlled environment. Rats were shipped at 350-375 g and were approximately 12 wks of age. Water and standard rat chow were provide ad libitum.
(§4) The following custom diets were commercially prepared (Dytes, Bethlehem, Pa.): control diet (AIN93M), or isocaloric, isonitrogenous diets supplemented with α-hydroxy-isocaproic acid (HICA) or leucine (Leu) (Table 1). […] Therefore, animals were provided the dietary intervention for a period of 6 days prior to hindlimb immobilization.
(§5) The foot was positioned in plantar-flexion to induce maximal atrophy of the gastrocnemius and rats received 10 ml of 0.9% warmed (37° C.) sterile saline for resuscitation. […] Consequently, the contralateral limb served as the control in all subsequent experiments. After casting, rats were housed individually and were continued to be pair-fed for a period of 7 days. Water was provided ad libitum. On day 7 after casting, rats were anesthetized with pentobarbital and the cast atraumatically and rapidly (<2 min) removed (Stryker Instruments, Kalamzoo, Mich.).

[6] = tested on: intestinal mammalian target of rapamycin (mTOR); conditions: piglet stressed with LPS; cited from earlier work
[7] = Organ weights of rats fed supplemented diets
Description: as §3, §4, §5

[8] = means ± SEM, all studies combined, no unit in table
[9] = means ± SEM, all studies combined
[10] = supplemented diet, means ± SEM, all studies combined

CC(C)C[C@H](N)C(=O)O [Leucine, leucine]
Protein synthesis in the previously immobilized muscle compared to contralateral uncasted muscle ([1]; day 14 of recovery, listed as Leu): not different from the uncasted muscle; also recorded: returned to basal values | In-vivo-determined tissue protein synthesis: Liver [1, 8]: 22.51 ± 0.88 | In-vivo-determined tissue protein synthesis: Heart [1, 9]: 2.93 ± 0.11 | Immobilization (casting)-induced decrease in muscle protein synthesis ([1]; listed as Leu): decreased protein synthesis to the same extent; also recorded: failed to prevent the casting-induced decrease in protein synthesis | Protein synthesis in the uncasted muscle compared to control-fed rats ([1]; uncasted gastrocnemius): did not differ | Insulin [2]: 3.64 ± 0.32 c ng/ml | HOMA-IR (homeostatic model assessment of insulin resistance) [2]: 47.7 ± 4.6b | Triglycerides [2]: 667 ± 52 µmol/L | HOMA-IR compared to control rats or those fed a HICA-containing diet ([2]; rat, in vivo): significantly greater | Markers of renal function (creatinine and BUN) compared to control values ([2]; rat, in vivo): generally unaffected | Serum phosphorus concentration, elevation compared to control values ([2]; rat, in vivo): 18% | Serum potassium concentration compared to control- or HICA-fed rats ([2]; rat, in vivo): lower | ALT [2]: 24 ± 1 U/L | AST [2]: 68 ± 4 U/L | Albumin [2]: 3.42 ± 0.03 g/dL | BUN [2]: 16.2 ± 0.5a mg/dL | Bilirubin, total [2]: 0.3 ± 0.02 mg/dL | Calcium [2]: 9.6 ± 0.1 mg/dL | Chloride [2]: 100 ± 1 mmol/L | Cholesterol [2]: 63 ± 4 mg/dL | Creatinine [2]: 0.3 ± 0.01 mg/dL | Glucose [2]: 214 ± 8 mg/dL | LDH [2]: 169 ± 21 U/L | Phosphorous [2]: 7.0 ± 0.2b mg/dL | Potassium [2]: 4.1 ± 0.1b mmol/L | Protein, total [2]: 5.0 ± 0.1 g/dL | Sodium [2]: 140 ± 1 mmol/L | Hematocrit [3]: 41 ± 1% | Hemoglobin [3]: 15.7 ± 0.3 g/dL | Lymphocytes [3]: 73 ± 3% | MCH [3]: 17.9 ± 0.2 pg | MCV [3]: 47 ± 1 fL | Neutrophils [3]: 23 ± 3% | Platelets [3]: 1206 ± 56 103/μl | RBC [3]: 8.98 ± 0.28 106/μl | WBC [3]: 2.7 ± 0.2 103/μl | Protime (prothrombin time) [3]: 18 ± 1 s | Muscle regrowth (gastrocnemius mass) 7 days after removal of the cast [4]: not altered | Decrease in gastrocnemius mass by immobilization [4]: 0.57 ± 0.08 g | Mass of previously immobilized gastrocnemius compared to contralateral uncasted muscle ([4]; listed as Leu): a reduction in mass of the previously immobilized muscle was still detected; also recorded: partial recovery of gastrocnemius mass | Kidney weight compared between diets [5]: did not differ

O=C(O)CCC(=O)C(=O)O [AKG, α-ketoglutarate]
Crypt depth [6]: reduced crypt depth | Phosphorylation of intestinal mTOR [6]: increased phosphorylation | Villous height [6]: increased villous height

CC(C)CC(O)C(=O)O (stereo not drawn) [HICA, α-hydroxy-isocaproic acid]
Increment in protein synthesis in the previously immobilized muscle ([1]; after a 7-day recovery period, not statistically significant versus control-fed rats): 0.77±0.17 nmol Phe/h/mg protein | Protein synthesis in the previously immobilized muscle compared to contralateral uncasted muscle ([1]; day 14 of recovery): still increased | Increment in muscle protein synthesis compared to other groups ([1]; day 14 of recovery, failed to achieve statistical significance): tended to be increased | In-vivo-determined tissue protein synthesis: Liver [1, 8]: 24.41 ± 0.90 | In-vivo-determined tissue protein synthesis: Heart [1, 9]: 2.76 ± 0.11 | Immobilization (casting)-induced decrease in muscle protein synthesis [1]: no immobilization-induced decrease | Immobilization (casting)-induced decrease in muscle protein synthesis ([1]; listed as αHICA): prevented the casting-induced decrease in muscle protein synthesis | In-vivo-determined tissue protein synthesis: GAstrocnemius (control) ([1]; uncasted control muscle, means ± SEM, all studies combined, no unit in table): 1.26 ± 0.04 | Basal rate of protein synthesis in uncasted muscle, lower than control-fed rats ([1]; uncasted gastrocnemius): 10% | Insulin [2]: 1.90 ± 0.15 a ng/ml | HOMA-IR (homeostatic model assessment of insulin resistance) [2]: 27.1 ± 3.2 a | Triglycerides [2]: 609 ± 51 µmol/L | Markers of renal function (creatinine and BUN) compared to control values ([2]; rat, in vivo): generally unaffected | Serum insulin concentration compared to control rats ([2]; rat, in vivo): did not differ | ALT [2]: 24 ± 1 U/L | AST [2]: 74 ± 4 U/L | Albumin [2]: 3.31 ± 0.04 g/dL | BUN [2]: 16.2 ± 0.6a mg/dL | Bilirubin, total [2]: 0.5 ± 0.04 mg/dL | Calcium [2]: 9.5 ± 0.1 mg/dL | Chloride [2]: 101 ± 1 mmol/L | Cholesterol [2]: 62 ± 3 mg/dL | Creatinine [2]: 0.3 ± 0.02 mg/dL | Glucose [2]: 223 ± 11 mg/dL | LDH [2]: 232 ± 23 U/L | Phosphorous [2]: 5.8 ± 0.2a mg/dL | Potassium [2]: 4.9 ± 0.1a mmol/L | Protein, total [2]: 5.0 ± 0.1 g/dL | Sodium [2]: 141 ± 1 mmol/L | Deleterious effects on whole-body and tissue-specific metabolic and hematological parameters ([2]; supplementation for up to 3 wks): no apparent deleterious effects | Hematocrit [3]: 40 ± 1% | Hemoglobin [3]: 15.2 ± 0.5 g/dL | Lymphocytes [3]: 70 ± 2% | MCH [3]: 17.9 ± 0.1 pg | MCV [3]: 47 ± 1 fL | Neutrophils [3]: 24 ± 2% | Platelets [3]: 1207 ± 60 103/μl | RBC [3]: 8.49 ± 0.31 106/μl | WBC [3]: 2.5 ± 0.2 103/μl | Protime (prothrombin time) [3]: 19 ± 1 s | Muscle regrowth (gastrocnemius mass) 7 days after removal of the cast [4]: not altered | Decrease in gastrocnemius mass by immobilization [4]: 0.61 ± 0.09 g | Mass of previously immobilized gastrocnemius compared to contralateral uncasted muscle [4]: did not differ; also recorded: complete recovery of mass | Prevention or amelioration of the reduction in muscle mass produced by disuse ([4]; unilateral hindlimb immobilization): failed to prevent or ameliorate the accompanying reduction in muscle mass | Organ weight: Liver ([7]; diet with α-HICA 50.4 g/kg or leucine 50 g/kg, means ± SEM, data combined from all studies): 12.00 ± 0.35 g | Kidney weight compared between diets ([7]; rat, in vivo): did not differ | Organ weight: Adrenal [7, 10]: 403 ± 16 mg | Organ weight: Kidney [7, 10]: 1.22 ± 0.03 g | Organ weight: Spleen [7, 10]: 960 ± 37 mg | Organ weight: Testes [7, 10]: 1.82 ± 0.03 g | Organ weight: Heart ([7]; ventricle only, supplemented diet, means ± SEM, all studies combined): 1.13 ± 0.02 g
